One assay addresses human Gal-3 (hGal-3) (Homo sapiens (Human), UniProt P17931). Nature of the assay: Competitive binding assay: binding of biotinylated hGal-3 to microplate-adsorbed asialofetuin (ASF). The settings on record: Activity on hGal-3; mean values of several measurements. The procedure:
(§1) Evaluation of Compound Inhibitory Activity (IC50)
(§2) The inhibitory activity of compounds is determined in competitive binding assays. This spectrophotometric assay measures the binding of biotinylated human Gal-3 (hGal-3) or human Gal-1 (hGal-1), respectively, to a microplate-adsorbed glycoprotein, asialofetuin (ASF) (Proc Natl Acad Sci USA. 2013 Mar. 26; 110(13):5052-7.). Alternatively, and preferably, a human Gal-1 version in which all six cysteines are substituted by serines may be used.
(§3) Briefly, compounds are serially diluted in DMSO (working dilutions). ASF-coated 384 well plates are supplemented with 22.8 μL/well of biotinylated hGal-3 or hGal-1 in assay buffer (i.e. 300-1000 ng/mL biotinylated hGal-3 or hGal-1) to which 1.2 μL of compound working dilutions are added and mixed.
(§4) Plates are incubated for 3 hours at 4° C., then washed with cold assay buffer (3×50 uL), incubated for 1 hour with 25 μL/well of a streptavidin-peroxidase solution (diluted in assay buffer to 80 ng/mL) at 4° C., followed by further washing steps with assay buffer (3×50 uL). Finally, 25 μL/well of ABTS substrate is added.
(§5) The calculated IC50 values may fluctuate depending on the daily assay performance. Fluctuations of this kind are known to those skilled in the art. IC50 values from several measurements are given as mean values.

The target in the next assay is human Gal-1 (hGal-1). Nature of the assay: Competitive binding assay: binding of biotinylated hGal-1 to microplate-adsorbed asialofetuin (ASF). As to conditions: Activities on hGal-1; mean values of several measurements. The protocol: as §1, §2, §3, §4, §5
human Gal-1 (hGal-1), sequence (P09382 2-135 limits assumed): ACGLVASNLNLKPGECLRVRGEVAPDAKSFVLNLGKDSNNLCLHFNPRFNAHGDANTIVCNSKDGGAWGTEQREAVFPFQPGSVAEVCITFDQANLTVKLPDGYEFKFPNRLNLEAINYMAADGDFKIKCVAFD

We go through 16 molecules from US12319672B2, “Alpha-D-galactopyranoside derivatives” (Idorsia Pharmaceuticals Ltd, priority 2019, dated 2025).

Broadly, the pIC50 is −log10 of the IC50, conventionally taken in molar units. High values mean a low IC50, low ones a high IC50.

pIC50: −log10 of the molar value.

human Gal-3 (hGal-3), sequence (P17931 whole entry): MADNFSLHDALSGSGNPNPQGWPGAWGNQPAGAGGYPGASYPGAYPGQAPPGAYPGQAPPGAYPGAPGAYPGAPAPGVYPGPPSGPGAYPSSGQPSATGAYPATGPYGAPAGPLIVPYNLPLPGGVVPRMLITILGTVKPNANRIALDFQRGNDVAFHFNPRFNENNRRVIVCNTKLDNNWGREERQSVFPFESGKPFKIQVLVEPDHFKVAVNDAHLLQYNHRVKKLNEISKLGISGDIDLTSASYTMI

Regarding `CO[C@@H]1[C@@H](n2cc(-c3cc(F)c(F)c(F)c3)nn2)[C@@H](O)[C@@H](CO)O[C@@H]1CC1CC(C2CCN(C(C)=O)CC2)=NO1` (mixture of isomers) [Example 3.05, 1-(4-((RS)-5-(((2R,3R,4S,5R,6R)-5-hydroxy-6-(hydroxymethyl)-3-methoxy-4-(4-(3,4,5-trifluorophenyl)-1H-1,2,3-triazol-1-yl)tetrahydro-2H-pyran-2-yl)methyl)-4,5-dihydroisoxazol-3-yl)piperidin-1-yl)ethan-1-one], the pIC50 on human Gal-3 (hGal-3) is 6.54; on human Gal-1 (hGal-1), 5.73.
For `OC[C@H]1O[C@H](CC2=NOC(C3CCNCC3)C2)[C@H](O)[C@@H](n2cc(-c3cc(F)c(F)c(F)c3)nn2)[C@H]1O` (mixture of isomers) [Example 3.09, (2R,3R,4R,5R,6R)-2-(hydroxymethyl)-6-(((RS)-5-(piperidin-4-yl)-4,5-dihydroisoxazol-3-yl)methyl)-4-(4-(3,4,5-trifluorophenyl)-1H-1,2,3-triazol-1-yl)tetrahydro-2H-pyran-3,5-diol], in that order: 6.08 and 4.88.
The matching figures for `CC(=O)N1CCC(C2CC(C[C@H]3O[C@H](CO)[C@H](O)[C@H](n4cc(-c5cc(F)c(F)c(F)c5)nn4)[C@H]3O)=NO2)CC1` (mixture of isomers) [Example 3.18, 1-(4-((RS)-3-(((2R,3R,4R,5R,6R)-3,5-dihydroxy-6-(hydroxymethyl)-4-(4-(3,4,5-trifluorophenyl)-1H-1,2,3-triazol-1-yl)tetrahydro-2H-pyran-2-yl)methyl)-4,5-dihydroisoxazol-5-yl)piperidin-1-yl)ethan-1-one]: 6.74 and 5.65.
For `CC(=O)O[C@@H]1[C@@H](n2cc(-c3cc(F)c(F)c(F)c3)nn2)[C@@H](O)[C@@H](CO)O[C@@H]1CC1=NOC(C2CCN(C(C)=O)CC2)C1` (mixture of isomers) [Example 3.23, (2R,3R,4S,5R,6R)-2-(((RS)-5-(1-acetylpiperidin-4-yl)-4,5-dihydroisoxazol-3-yl)methyl)-5-hydroxy-6-(hydroxymethyl)-4-(4-(3,4,5-trifluorophenyl)-1H-1,2,3-triazol-1-yl)tetrahydro-2H-pyran-3-yl acetate], in that order: 6.64 and 5.40.
Take `CO[C@@H]1[C@@H](n2cc(-c3cc(F)c(F)c(F)c3)nn2)[C@@H](O)[C@@H](CO)O[C@@H]1CC1=NOC(C2CCNCC2)C1` (mixture of isomers) [Example 3.36, (2R,3R,4S,5R,6R)-2-(hydroxymethyl)-5-methoxy-6-(((RS)-5-(piperidin-4-yl)-4,5-dihydroisoxazol-3-yl)methyl)-4-(4-(3,4,5-trifluorophenyl)-1H-1,2,3-triazol-1-yl)tetrahydro-2H-pyran-3-ol]: the pIC50 on human Gal-3 (hGal-3) is 5.94; on human Gal-1 (hGal-1), 5.09.
For the molecule `CO[C@@H]1[C@@H](n2cc(-c3cc(F)c(F)c(F)c3)nn2)[C@@H](O)[C@@H](CO)O[C@@H]1CC1=NOC(C2CCN(C(C)=O)CC2)C1` (mixture of isomers) [Example 3.40, 1-(4-((RS)-3-(((2R,3R,4S,5R,6R)-5-hydroxy-6-(hydroxymethyl)-3-methoxy-4-(4-(3,4,5-trifluorophenyl)-1H-1,2,3-triazol-1-yl)tetrahydro-2H-pyran-2-yl)methyl)-4,5-dihydroisoxazol-5-yl)piperidin-1-yl)ethan-1-one], the pIC50 at human Gal-3 (hGal-3) was 6.51; on human Gal-1 (hGal-1), 5.92.
With `CCC(C)C(=O)N1CCC(c2cc(C[C@H]3O[C@H](CO)[C@H](O)[C@H](n4cc(-c5cc(F)c(F)c(F)c5)nn4)[C@H]3OC)no2)CC1` (mixture of isomers) [Example 3.53, (RS)-1-(4-(3-(((2R,3R,4S,5R,6R)-5-hydroxy-6-(hydroxymethyl)-3-methoxy-4-(4-(3,4,5-trifluorophenyl)-1H-1,2,3-triazol-1-yl)tetrahydro-2H-pyran-2-yl)methyl)isoxazol-5-yl)piperidin-1-yl)-2-methylbutan-1-one], the results for the pIC50 at human Gal-3 (hGal-3) and at human Gal-1 (hGal-1) were 6.72 and 5.60, respectively.
For the molecule `CO[C@@H]1[C@@H](n2cc(-c3cc(F)c(F)c(F)c3)nn2)[C@@H](O)[C@@H](CO)O[C@@H]1Cc1cc(C2CCN([S+]([O-])C(C)(C)C)CC2)on1` (mixture of isomers) [Example 3.55, (2R,3R,4S,5R,6R)-6-((5-(1-((RS)-tert-butylsulfinyl)piperidin-4-yl)isoxazol-3-yl)methyl)-2-(hydroxymethyl)-5-methoxy-4-(4-(3,4,5-trifluorophenyl)-1H-1,2,3-triazol-1-yl)tetrahydro-2H-pyran-3-ol], the results for the pIC50 at human Gal-3 (hGal-3) and on human Gal-1 (hGal-1) were 7.05 and 5.52, respectively.
In the case of `CO[C@@H]1[C@@H](n2cc(-c3cc(F)c(F)c(F)c3)nn2)[C@@H](O)[C@@H](CO)O[C@@H]1Cc1cc(C2CCN(S(=N)(=O)C(C)(C)C)CC2)on1` (mixture of isomers) [Example 3.56, (RS)-(2R,3R,4S,5R,6R)-2-(hydroxymethyl)-5-methoxy-6-((5-(1-(2-methylpropan-2-ylsulfonimidoyl)piperidin-4-yl)isoxazol-3-yl)methyl)-4-(4-(3,4,5-trifluorophenyl)-1H-1,2,3-triazol-1-yl)tetrahydro-2H-pyran-3-ol], the pIC50 on human Gal-3 (hGal-3) is 7.70; on human Gal-1 (hGal-1) it was 6.21.
For `CN=S(=O)(C(C)C)N1CCC(c2cc(C[C@H]3O[C@H](CO)[C@H](O)[C@H](n4cc(-c5cc(F)c(F)c(F)c5)nn4)[C@H]3OC)no2)CC1` (mixture of isomers) [Example 3.57, (RS)-(2R,3R,4S,5R,6R)-2-(hydroxymethyl)-5-methoxy-6-((5-(1-(N-methylpropan-2-ylsulfonimidoyl)piperidin-4-yl)isoxazol-3-yl)methyl)-4-(4-(3,4,5-trifluorophenyl)-1H-1,2,3-triazol-1-yl)tetrahydro-2H-pyran-3-ol], the values for the pIC50 on human Gal-3 (hGal-3) and at human Gal-1 (hGal-1) were 7.01 and 5.85, respectively.
As to `COc1ccc(N2CC(C[C@H]3O[C@H](CO)[C@H](O)[C@H](n4cc(-c5cc(F)c(F)c(F)c5)nn4)[C@H]3OC)OC2=O)cc1` (mixture of isomers) [Example 5.01, (RS)-5-(((2R,3R,4S,5R,6R)-5-hydroxy-6-(hydroxymethyl)-3-methoxy-4-(4-(3,4,5-trifluorophenyl)-1H-1,2,3-triazol-1-yl)tetrahydro-2H-pyran-2-yl)methyl)-3-(4-methoxyphenyl)oxazolidin-2-one], the pIC50 on human Gal-3 (hGal-3) was 5.80; on human Gal-1 (hGal-1) it was 5.28.
For the molecule `CO[C@@H]1[C@@H](n2cc(-c3cc(F)c(F)c(F)c3)nn2)[C@@H](O)[C@@H](CO)O[C@@H]1CC1CN(c2ccc(OC(F)F)cc2)C(=O)O1` (mixture of isomers) [Example 5.02, (RS)-3-(4-(difluoromethoxy)phenyl)-5-(((2R,3R,4S,5R,6R)-5-hydroxy-6-(hydroxymethyl)-3-methoxy-4-(4-(3,4,5-trifluorophenyl)-1H-1,2,3-triazol-1-yl)tetrahydro-2H-pyran-2-yl)methyl)oxazolidin-2-one], the pIC50 is 5.81 on human Gal-3 (hGal-3) and 5.45 at human Gal-1 (hGal-1).
Turning to `CO[C@@H]1[C@@H](n2cc(-c3cc(F)c(F)c(F)c3)nn2)[C@@H](O)[C@@H](CO)O[C@@H]1CC1CN(C2CCN(C(C)=O)CC2)C(=O)O1` (mixture of isomers) [Example 5.03, (RS)-3-(1-acetylpiperidin-4-yl)-5-(((2R,3R,4S,5R,6R)-5-hydroxy-6-(hydroxymethyl)-3-methoxy-4-(4-(3,4,5-trifluorophenyl)-1H-1,2,3-triazol-1-yl)tetrahydro-2H-pyran-2-yl)methyl)oxazolidin-2-one], the pIC50 on human Gal-3 (hGal-3) was 6.92; at human Gal-1 (hGal-1), 6.19.
The matching figures for `CO[C@@H]1[C@@H](n2cc(-c3cc(F)c(F)c(F)c3)nn2)[C@@H](O)[C@@H](CO)O[C@@H]1CC1CN(C2CCN(S(C)(=O)=O)CC2)C(=O)O1` (mixture of isomers) [Example 5.04, (RS)-5-(((2R,3R,4S,5R,6R)-5-hydroxy-6-(hydroxymethyl)-3-methoxy-4-(4-(3,4,5-trifluorophenyl)-1H-1,2,3-triazol-1-yl)tetrahydro-2H-pyran-2-yl)methyl)-3-(1-(methylsulfonyl)piperidin-4-yl)oxazolidin-2-one]: 6.74 and 6.10.
For `CO[C@@H]1[C@@H](n2cc(-c3cc(F)c(F)c(F)c3)nn2)[C@@H](O)[C@@H](CO)O[C@@H]1CC1CN(C2CCN(C(=O)OC(C)(C)C)CC2)C(=O)O1` (mixture of isomers) [Example 5.09, tert-butyl 4-((RS)-5-(((2R,3R,4S,5R,6R)-5-hydroxy-6-(hydroxymethyl)-3-methoxy-4-(4-(3,4,5-trifluorophenyl)-1H-1,2,3-triazol-1-yl)tetrahydro-2H-pyran-2-yl)methyl)-2-oxooxazolidin-3-yl)piperidine-1-carboxylate], in that order: 7.08 and 6.34.
For `CO[C@@H]1[C@@H](n2cc(-c3cc(F)c(F)c(F)c3)nn2)[C@@H](O)[C@@H](CO)O[C@@H]1CC1CN(C2CCN(C(=O)C(C)C)CC2)C(=O)O1` (mixture of isomers) [Example 5.10, (RS)-5-(((2R,3R,4S,5R,6R)-5-hydroxy-6-(hydroxymethyl)-3-methoxy-4-(4-(3,4,5-trifluorophenyl)-1H-1,2,3-triazol-1-yl)tetrahydro-2H-pyran-2-yl)methyl)-3-(1-isobutyrylpiperidin-4-yl)oxazolidin-2-one], in that order: 6.72 and 6.55.
